Experimental data as given in patent US20140155324A1, “NOVEL PEPTIDES AND USES THEREOF IN THERAPEUTIC METHODS” (TWO TO BIOTECH LTD., priority 2011, published 2014).

Columns and labels:
Assay type in all cases: in vivo, C57Bl/6 male mice
[1] = Glucose tolerance test (GTT) after 2 weeks of treatment; details: mice, 0.25, 1.5 or 15 mg/Kg 3 times a week for 2 weeks; glucose 2 g/Kg i.p., 0-120 min; optimal response at 1.5 mg/Kg; FIG. 1
Protocol: Twenty 7-weeks old C57Bl/6 male mice (per experiment) were purchased from Harlan Biotech (Jerusalem, Israel). All mice were maintained in the animal facility room at the company facility. The mice were given standard laboratory chow and water ad libitum and kept in a 12-hour light/dark cycle. All animal experiments were carried out in accordance with the guidelines of the Israeli authority for animal experiments for Care and Use of Laboratory Animals and with the authority specific approval. At the end of experiment (two weeks) a glucose tolerance test (GTT) was performed. The mice were starved overnight prior to administration of the test. Glucose was injected intraperitoneally (i.p.) (2 g/Kg body weight) and blood glucose levels were measured at time-points 0 min, 15 min, 30 min, 60 min, 90 min and 120 min. Blood glucose was determined by sampling tail vein blood using a standard glucometer. Male C57131/6 mice were divided into four groups of 5 mice each. The control group (Group I) received 5% Mannitol IV (200 μL 3 times a week). Group II received a dose of APC2 (0.25 mg/Kg body weight) 3 times a week. Group III received a dose of APC2 (1.5 mg/Kg body weight) 3 times a week. Group IV received a dose of APC2 (15 mg/Kg body weight) 3 times a week. The mice were treated for 2 weeks. […]

Plasma glucagon assay = details: mice, 0.25, 1.5 or 15 mg/Kg 3 times a week for 2 weeks; FIG. 2
Protocol: (§1) Twenty 7-weeks old C57Bl/6 male mice (per experiment) were purchased from Harlan Biotech (Jerusalem, Israel). All mice were maintained in the animal facility room at the company facility. The mice were given standard laboratory chow and water ad libitum and kept in a 12-hour light/dark cycle. All animal experiments were carried out in accordance with the guidelines of the Israeli authority for animal experiments for Care and Use of Laboratory Animals and with the authority specific approval.
Mice tail vein was punctured and blood glucose was assayed using a standard glucometer.
(§2) Male C57131/6 mice were divided into four groups of 5 mice each. The control group (Group I) received 5% Mannitol IV (200 μL 3 times a week). Group II received a dose of APC2 (0.25 mg/Kg body weight) 3 times a week. Group III received a dose of APC2 (1.5 mg/Kg body weight) 3 times a week. Group IV received a dose of APC2 (15 mg/Kg body weight) 3 times a week. The mice were treated for 2 weeks.
In addition to GTT, the mice plasma glucagon levels were assayed as described in the Methods section.

insulin receptor = experiment: Insulin receptor RNA level in splenocytes of treated mice; details: mice, 0.25, 1.5 or 15 mg/Kg 3 times a week for 2 weeks; HPRT control; maximal induction at 1.5 mg/Kg; FIG. 3B
Protocol: (§3) Mice were sacrificed and dissected. 15-20 mg of appropriate tissue was taken and stabilized in RNA-Save. RNA was extracted from the tissue using an RNeasy mini kit. Homogenization was performed using a 22G needle and syringe. cDNA was prepared from the RNA using EZ-first strand cDNA synthesis kit for RT-PCR. PCR of samples was performed using GoTaq Green Master Mix using appropriate primers (40 cycles, annealing temperature: 62° C.).
as §2
(§4) At the end of the experiment, the mice were sacrificed, the splenocytes were collected from the different mice groups and the RNA levels of HPRT (control), insulin receptor and GLUT4 were assayed.

GLUT-4 = GLUT-4 RNA level in splenocytes of treated mice; details: mice, 0.25, 1.5 or 15 mg/Kg 3 times a week for 2 weeks; HPRT control; maximal induction at 1.5 mg/Kg; FIG. 3C
Protocol: as §3, §2, §4

TNFα = experiment: Serum TNFα assay (Bio-Plex); details: mice, 0.25, 1.5 or 15 mg/Kg 3 times a week for 2 weeks; optimal response at 1.5 mg/Kg; FIG. 4A
Protocol: as §1
(§5) Blood was drawn from each mouse and collected separately in a 1.5 ml vial. After 30 min to 1 hr at room temperature, the clotted blood was centrifuged at 300G for 15 minutes at 4° C. The supernatant was collected to a new 1.5 ml vial and centrifuged again at 300G for 15 minutes. The supernatant was collected to a new 1.5 ml vial and frozen at −70° C. for later analysis. When ready for analysis, the blood vials were quickly thawed in a water bath at room temperature, and then centrifuged at 13,000 G for 10 minutes at 4° C. Samples were analyzed according to the Bio-Plex Pro assay instruction manual using a flat bottom black plate.
(§6) Male CS7Bl/6 mice were divided into four groups of 5 mice each. […]
(§7) At the end of the experiment, TNFα and IL-1β were measured in the mice plasma, and the results are presented in FIGS. 4A and 4B, respectively.

IL-1β = experiment: Serum IL-1β assay (Bio-Plex); details: mice, 0.25, 1.5 or 15 mg/Kg 3 times a week for 2 weeks; optimal response at 1.5 mg/Kg; FIG. 4B
Protocol: as §1, §5, §6, §7

| Substance | glucose tolerance (blood glucose levels after i.p. glucose) [1] | plasma glucagon levels (Plasma glucagon assay) | insulin receptor RNA levels in splenocytes (insulin receptor) | GLUT4 RNA levels in splenocytes (GLUT-4) | TNFα levels (TNFα) | IL-1β levels (IL-1β) |
| --- | --- | --- | --- | --- | --- | --- |
| APC-2: isolated polypeptide of SEQ ID NO. 1, hormone-like protein expressed in human heart and lymphocytes (MITSWFSLLPGSQEATATPPFPVVAGRKH; Homo sapiens APC2) | improved glucose tolerance in a dose-dependent manner | reduced in a dose-dependent manner | up-regulated | up-regulated |  |  |
| APC-3: isolated polypeptide of SEQ ID NO. 5, hormone-like protein expressed in human spleen, testis, small intestine, colon and kidney (MSSFCLALEVFHPTVSSGRSRPYQIASLETPVLNYSFHHRR; Homo sapiens APC3) |  |  |  |  | reduced both inflammatory cytokines levels in a dose-dependent manner | reduced both inflammatory cytokines levels in a dose-dependent manner |
